For test [1], the system named is BTK (217-655) error-prone mutant library. Nature of the test: BTK error-prone library screening by FACS in presence of inhibitor. The class given is cell-based, human. How it is done:
A12 polymerase, an error-prone variant of KOD polymerase, was used for amplification to generate a pool of mutants. Vector was prepared by digestion with XhoI and XbaI. PCR product and digested vector were gel extracted and drop dialyzed in ddH2O on VSWP membranes for one hour. […] Library size was estimated by colony counts from dilution series of transformed cells plated on SD-UT agar plus 100 μg/mL G418. Sanger sequencing was carried out on 15 randomly selected clones, as well as high throughput sequencing (described below) on an aliquot of the entire sample.
3×10^8 cells were washed with TBS+BSA for each library and then stained with anti-His6-FITC and anti-pY-APC for 30 minutes at 4° C. Cells were washed three times to remove unbound antibody.

The subject of test [2] is ABL kinase error-prone mutant library. Nature of the test: ABL error-prone library screening by FACS in presence of inhibitor. It counts as cell-based, human. Particulars: inhibitor-treated cultures (25 μM).
Experimental: 5×10^7 cells were washed with TBS+BSA then stained with anti-His6-FITC and anti-pY-PE for 30 minutes at 4° C. Cells were washed three times to remove unbound antibody. Wild-type ABL with and without inhibitor was used to determine the location of the sorting gates. PE+/FITC+ cells were sorted and re-sorted, then transferred to SD-UT medium for growth at 30° C. until dense, 1-2 days depending on number of cells collected (FIG. 1B).

Regarding `CC#CC(=O)N1CCC[C@H]1c1nc(-c2ccc(C(=O)Nc3ccccn3)cc2)c2c(N)nccn12` [Acalabrutinib], the “fraction of APC-positive cells” value in test [1] (1000 μM Acalabrutinib treated cultures, pre-sort round 3 pool) turned out to be 23.8%; in test [1] (1000 μM Acalabrutinib treated cultures, unsorted pool), 1.63%.

As to `C=CC(=O)N1CCC[C@@H](n2nc(-c3ccc(Oc4ccccc4)cc3)c3c(N)ncnc32)C1` [Ibrutinib], the “fraction of APC-positive cells” value in test [1] (400 nM Ibrutinib-treated cultures, pre-sort round 3) stood at 40.60%; in test [1] (400 nM Ibrutinib-treated cultures, unsorted pool), 0.7%.

`Cc1ccc(C(=O)Nc2ccc(CN3CCN(C)CC3)c(C(F)(F)F)c2)cc1C#Cc1cnc2cccnn12` [Ponatinib]: the “fraction of PE-positive cells” value in test [2] (pre-sort 4 pool) amounted to 57.9%; in test [2] (unsorted pool), 0.31%.

Values taken from US11236380B2, “Methods for predicting kinase inhibitor resistance” (Research Development Foundation, priority 2017, dated 2022).
